What was measured:
[1] = target: T1, Amine oxidase [flavin-containing] A (Homo sapiens, UniProt P21397); assay: Inhibition of recombinant MAO-A (unknown origin) by Spectrometric analysis
T1 sequence (P21397 whole entry): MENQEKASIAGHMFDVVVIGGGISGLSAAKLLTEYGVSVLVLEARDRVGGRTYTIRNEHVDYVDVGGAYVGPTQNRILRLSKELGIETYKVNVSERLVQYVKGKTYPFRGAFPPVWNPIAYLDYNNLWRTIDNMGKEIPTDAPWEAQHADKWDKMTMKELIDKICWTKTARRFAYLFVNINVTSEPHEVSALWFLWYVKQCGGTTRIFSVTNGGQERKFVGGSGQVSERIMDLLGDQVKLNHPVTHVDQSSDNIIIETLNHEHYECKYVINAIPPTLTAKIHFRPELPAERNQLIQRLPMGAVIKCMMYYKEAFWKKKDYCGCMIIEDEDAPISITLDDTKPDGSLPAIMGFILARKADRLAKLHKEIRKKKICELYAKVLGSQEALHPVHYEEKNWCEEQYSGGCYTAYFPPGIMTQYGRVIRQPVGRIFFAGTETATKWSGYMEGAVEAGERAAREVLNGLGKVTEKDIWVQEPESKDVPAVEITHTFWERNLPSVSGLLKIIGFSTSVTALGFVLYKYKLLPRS

[2] = target: T2, Amine oxidase [flavin-containing] B (Homo sapiens, UniProt P27338); assay: Inhibition of recombinant MAO-B (unknown origin) by Spectrometric analysis
T2 sequence (P27338 whole entry): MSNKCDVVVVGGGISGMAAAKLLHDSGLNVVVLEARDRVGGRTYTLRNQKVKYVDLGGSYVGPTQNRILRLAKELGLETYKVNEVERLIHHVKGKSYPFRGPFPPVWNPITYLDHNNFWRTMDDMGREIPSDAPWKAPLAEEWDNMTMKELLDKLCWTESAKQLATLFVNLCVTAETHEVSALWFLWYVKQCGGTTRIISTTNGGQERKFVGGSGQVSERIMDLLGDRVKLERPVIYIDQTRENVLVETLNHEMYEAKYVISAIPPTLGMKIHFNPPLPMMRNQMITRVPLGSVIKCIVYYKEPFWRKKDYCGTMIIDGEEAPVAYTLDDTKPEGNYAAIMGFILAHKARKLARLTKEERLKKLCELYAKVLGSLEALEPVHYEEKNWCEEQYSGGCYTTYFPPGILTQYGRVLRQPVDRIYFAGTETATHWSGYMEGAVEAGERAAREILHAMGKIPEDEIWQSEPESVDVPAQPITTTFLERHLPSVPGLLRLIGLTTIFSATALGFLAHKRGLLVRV

[3] = target: T3, Lysine-specific histone demethylase 1A (Homo sapiens, UniProt O60341); assay: Inhibition of LSD1 (unknown origin) using methylated histone H3K4 peptide as substrate by fluorescence analysis
[4] = target: T3, Lysine-specific histone demethylase 1A; assay: Inhibition of human GST-tagged LSD1 demethylase activity using H3K4 peptide as substrate by MALDI-TOF analysis
[5] = target: T3, Lysine-specific histone demethylase 1A; assay: Inhibition of LSD1 (unknown origin) expressed in Escherichia coli BL21 (DE) using H3K4me2 peptide as substrate incubated for 30 mins by Amplex Red reagent based fluorescence analysis
[6] = target: T4, MAO-B (Homo sapiens, UniProt P27338); assay: Inhibition of recombinant MAO-B (unknown origin) at 1 uM by MAO-GloTM assay
T4 sequence (P27338 whole entry): T2 sequence (P27338 whole entry)

[7] = target: T5, MAO-A (Homo sapiens, UniProt P21397); assay: Inhibition of recombinant MAO-A (unknown origin) at 1 uM by MAO-GloTM assay
T5 sequence (P21397 whole entry): T1 sequence (P21397 whole entry)

[8] = target: T3, Lysine-specific histone demethylase 1A; assay: Inhibition of human LSD1 (172 to 833 residues) expressed in Escherichia coli Rosetta 2 strain using H3K4me1 (1 to 21 residues) as substrate by Amplex Red reagent based fluorescence assay
[9] = Cytotoxicity against human GES1 cells assessed as reduction in cell viability incubated for 72 hrs by MTT assay; format: toxicity, cell-based
[10] = test system: MGC-803; assay: Antiproliferative activity against human MGC-803 cells assessed as reduction in cell viability incubated for 72 hrs by MTT assay; format: functional, cell-based
[11] = target: T3, Lysine-specific histone demethylase 1A; assay: Inhibition of recombinant LSD1 (unknown origin)
[12] = target: T3, Lysine-specific histone demethylase 1A; assay: Inhibition of LSD1 (unknown origin)
[13] = test system: MDA-MB-231; assay: Antiproliferative activity against human MDA-MB-231 cells assessed as reduction in cell viability incubated for 48 hrs by MTT assay; format: functional, cell-based; settings: MDA-MB-231, 48 h
[14] = target: T3, Lysine-specific histone demethylase 1A; assay: Inhibition of LSD1 (unknown origin) by fluorescence analysis
[15] = target: T3, Lysine-specific histone demethylase 1A; assay: Inhibition of LSD1 (unknown origin) by fluorescence based microplate reader analysis
[16] = target: T4, MAO-B; assay: Inhibition of recombinant MAO-B (unknown origin) at 1 uM incubated for 15 mins followed by luciferin substrate addition and measured after 60 mins by Promega-Glo analysis; settings: probe luciferin substrate, time 75 min
[17] = target: T3, Lysine-specific histone demethylase 1A; assay: Inhibition of LSD1 (unknown origin) using H3K4me2 peptide as substrate at 1 uM incubated for 30 mins by Amplex Red reagent based fluorescence analysis
[18] = test system: THP-1; assay: Antiproliferative activity against human THP-1 cells assessed as reduction in cell viability incubated for 6 days by MTS assay; format: functional, cell-based; settings: THP-1, 144 h
[19] = test system: K562; assay: Antiproliferative activity against human K562 cells assessed as reduction in cell viability incubated for 6 days by MTS assay; format: functional, cell-based; settings: K562, 144 h
[20] = target: T5, MAO-A; assay: Inhibition of recombinant MAO-A (unknown origin) at 1 uM incubated for 15 mins followed by luciferin substrate addition and measured after 60 mins by Promega-Glo analysis; settings: probe luciferin substrate, time 75 min
[21] = test system: Raji; assay: Antiproliferative activity against human Raji cells assessed as reduction in cell viability incubated for 6 days by MTS assay; format: functional, cell-based; settings: 144 h
[22] = test system: OCI-AML-3; assay: Antiproliferative activity against human OCI-AML-3 cells assessed as reduction in cell viability incubated for 6 days by MTS assay; format: functional, cell-based; settings: OCI-AML-3, 144 h
[23] = test system: U-937; assay: Antiproliferative activity against human U-937 cells assessed as reduction in cell viability incubated for 6 days by MTS assay; format: functional, cell-based; settings: U-937, 144 h
[24] = target: T2, Amine oxidase [flavin-containing] B; assay: Inhibition of recombinant MAO-B (unknown origin) by MAO-Glo assay
[25] = target: T1, Amine oxidase [flavin-containing] A; assay: Inhibition of recombinant MAO-A (unknown origin) by MAO-Glo assay

For `COCc1cccc(NC(=O)c2cc3ccccc3n2C)c1COc1ccc(OC2CCNCC2)cc1`, the IC50 [1] was 71 µM and the IC50 [2] was 138 µM.
Compound `CSCCc1nc(-c2cccc(N)c2)oc1C` has an IC50 [3] of 16.1 µM.
Work on `COC(=O)c1cc(CN2CCN(C(=N)N)CC2)cc(C(=O)N2CCN(C(=O)c3ccc(C(=N)N)cc3)CC2)c1` yielded an IC50 [4] of 5.27 µM.
In the case of `COc1cc2c(cc1OC)-c1cc3ccc4c(c3c[n+]1CC2)OCO4`, the IC50 [5] is reported as 0.14 µM, the inhibition at 1 µM [6] is reported as < 30% and the inhibition at 1 µM [7] is reported as < 30%.
In the case of `CSCC[C@@H]1NC(=O)[C@@H](NC(=O)[C@H](CCCNC(=N)N)NC(=O)[C@H](C)N)CCCCNC(=O)CC[C@@H](C(=O)N[C@@H](CCC(=O)O)C(=O)N[C@@H](C)C(=O)N[C@@H](CCCNC(=N)N)C(=O)N[C@@H](CCCCN)C(=O)N[C@@H](CO)C(=O)N[C@H](C(=O)O)[C@@H](C)O)NC1=O`, the Ki [8] is reported as 2.3 µM.
In the case of `Cc1ccc(S(=O)(=O)Nc2cccc(C(=O)NCCc3ccc(O)cc3)c2)cc1`, the IC50 [1] is reported as 109 µM and the IC50 [2] is reported as 344 µM.
With `COc1ccc(-c2coc3cc(O)cc(O)c3c2=O)cc1` [BIOCHANIN] the IC50 at 72 h [9] was > 32 µM and the IC50 [10] was 2.95 µM.
For `C=CC(=O)Nc1cc(Nc2nccc(-c3cn(C)c4ccccc34)n2)c(OC)cc1N(C)CCN(C)C` [OSIMERTINIB], the IC50 [11] was 3.98 µM.
In the case of `O=C(NCCc1ccc([N+](=O)[O-])cc1)c1cccc(NS(=O)(=O)c2ccccc2)c1`, the IC50 [1] is reported as 63.9 µM and the IC50 [2] is reported as 298 µM.
With `COc1cc(CNC(=O)CCCC/C=C/C(C)C)ccc1O` [CAPSAICIN] the IC50 [12] was 0.6 µM.
`COc1c(O)cc2oc3cc(O)c(CC=C(C)C)c(O)c3c(=O)c2c1CC=C(C)C` [MANGOSTIN] gave an IC50 [13] of 12.8 µM and an IC50 [14] of 2.81 µM.
`COc1c(O[C@H]2O[C@@H](C(=O)O)[C@H](O)[C@@H](O)[C@@H]2O)cc(O)c2c(=O)cc(-c3ccccc3)oc12` gave an IC50 [15] of 2.98 µM and an IC50 [13] of 19.4 µM.
In the case of `N=C(N)c1ccc(C(=O)N2CCN(C(=O)c3cc(CN4CCN(C(=N)N)CC4)cc([N+](=O)[O-])c3)CC2)cc1`, the IC50 [4] is reported as 10.5 µM.
With `C#CCSc1nc(Sc2nnnn2-c2ccccc2)c2nnn(Cc3ccccc3Cl)c2n1` the inhibition at 1.25 h, 1 µM [16] was < 10%, the inhibition [17] was 95.6% and the IC50 [18] was 0.45 µM. For the same compound, the IC50 [19] was 1.3 µM, the inhibition at 1.25 h, 1 µM [20] was < 10% and the IC50 [21] was 1.4 µM. It also gave an IC50 [22] of 1.79 µM and an IC50 [23] of 1.22 µM.
For `CC(C)(C)OC(=O)N1CCN(C(=S)SCC(=O)Nc2ccc(C(=O)/C=C/c3ccccc3F)cc2)CC1`, the IC50 [24] was > 20 µM and the IC50 [25] was > 20 µM.
`Cc1ccc(S(=O)(=O)Nc2cccc(C(=O)NCCc3ccc([N+](=O)[O-])cc3)c2)cc1` showed an IC50 [1] of 90 µM and an IC50 [2] of 226 µM.

— ChEMBL document CHEMBL5226296, “Reversible Lysine Specific Demethylase 1 (LSD1) Inhibitors: A Promising Wrench to Impair LSD1” (J Med Chem, 2021)
